Experimental data from patent publication US20240368163A1, “COMPOUNDS AND METHODS FOR MODULATING SPLICING” (REMIX THERAPEUTICS INC., priority 2021, published 2024).

What was measured:
Type in all cases: cell-based, human
[1] = test system: HTT; assay: Splicing RT-qPCR assay, HTT mRNA canonical junction (CJ) and alternative junction (AJ); conditions: Homo sapiens; for AC50: increase in AJ mRNA
Outline: (§1)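 A673 or K562 cells were treated 24 h at 37 °C with an 11-point 3-fold dilution series (top 10 uM final, DMSO ≤0.25%). Lysates underwent one-step RT-qPCR for canonical (CJ) and alternative (AJ) junctions; Ct normalized to GAPDH, GUSB or PPIA and DMSO control via 2^(−ΔΔCt), expressed as percentage response.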

[2] = test system: MYB; assay: Splicing RT-qPCR assay, MYB mRNA canonical junction (CJ) and alternative junction (AJ); conditions: Homo sapiens; for AC50: increase in AJ mRNA
Outline: as §1

[3] = test system: SMN2; assay: Splicing RT-qPCR panel, SMN2 canonical junction (CJ) mRNA; conditions: Homo sapiens, RT-qPCR panel, canonical junction mRNA; compound concentration having 50% response in CJ decrease; read-out: SMN2 IC50 (decrease in CJ mRNA levels)
Outline: as §1

[4] = test system: Target C; assay: Splicing RT-qPCR panel, Target C canonical junction (CJ) mRNA; conditions: Homo sapiens, RT-qPCR panel, canonical junction mRNA; compound concentration having 50% response in CJ decrease; read-out: Target C IC50 (decrease in CJ mRNA levels)
Outline: as §1

[5] = test system: MYB; assay: HiBiT protein abundance assay, MYB; conditions: Homo sapiens, K562, 24 h, Table 13A, modified K562 cells
Outline: (§2)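 K562 cells with endogenous HiBiT-tagged target were treated 24 h at 37 °C with compound (10-point 3-fold dilution, top 10 μM final, DMSO ≤0.25%). Lytic LgBiT luminescence was normalized to unmodified K562 (baseline) and DMSO-treated tagged cells; IC50 interpolated at 50% from four-parameter logistic fit.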

[6] = test system: HTT; assay: HiBiT protein abundance assay, HTT; conditions: Homo sapiens, K562, 24 h, Table 13A, modified K562 cells
Outline: as §2

[7] = test system: Target C; assay: HiBiT protein abundance assay, Target C; conditions: Homo sapiens, K562, 24 h, Table 13A, modified K562 cells
Outline: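 HiBiT knock-in K562-derived cells, 10000 cells/well, were treated 24 h at 37 °C with a 10-point 3-fold dilution series (top 10 μM final, DMSO ≤0.25%). Lytic HiBiT luminescence was normalized to unmodified K562 and DMSO controls; IC50 was interpolated at 50% from a four-parameter logistic fit.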

[8] = 24 h, decrease in CJ mRNA, A673 or K562 cells, 24 hours treatment, RT-qPCR, read-out: HTT CJ IC50
[9] = 24 h, A673 or K562 cells, 24 hours treatment, RT-qPCR
[10] = RT-qPCR panel, canonical junction mRNA, compound concentration having 50% response in CJ decrease, read-out: HTT IC50 (decrease in CJ mRNA levels)
[11] = 24 h, decrease in CJ mRNA, A673 or K562 cells, 24 hours treatment, RT-qPCR, read-out: MYB CJ IC50
[12] = RT-qPCR panel, canonical junction mRNA, compound concentration having 50% response in CJ decrease, read-out: MYB IC50 (decrease in CJ mRNA levels)

With `c1nc2c(-c3cn[nH]c3)ccc(-c3ccc(N4CCC5(CCNCC5)C4)nn3)c2s1` [Compound 190] the IC50 [1, 8] was greater than 10 µM, the AC50 [1, 9] was greater than 10 µM and the IC50 [1, 10] was greater than 10 µM. For the same compound, the IC50 [2, 11] was greater than 10 µM, the AC50 [2, 9] was greater than 10 µM and the IC50 [2, 12] was greater than 10 µM. For the same compound, the IC50 [3] was greater than 10 µM, the IC50 [4] was greater than 10 µM and the IC50 [5] was greater than 10 µM. It also gave an IC50 [6] greater than 10 µM and an IC50 [7] greater than 10 µM.
For `c1nc2c(-c3cn[nH]c3)ccc(-c3ccc(N4CCC5(CCCNC5)C4)nn3)c2s1` (centres unmarked) [Compound 191], the IC50 [1, 8] was greater than 10 µM, the AC50 [1, 9] was greater than 10 µM and the IC50 [1, 10] was greater than 10 µM. For the same compound, the IC50 [2, 11] was greater than 10 µM, the AC50 [2, 9] was greater than 10 µM and the IC50 [2, 12] was greater than 10 µM. It also gave an IC50 [3] of 1 to 10 µM, an IC50 [4] greater than 10 µM and an IC50 [5] of 1 to 10 µM. The IC50 [6] was 1 to 10 µM and the IC50 [7] was greater than 10 µM.
Work on `c1nc2c(-c3cn[nH]c3)ccc(-c3ccc(N4CCC5(CCNC5)CC4)nn3)c2s1` [Compound 192] yielded an IC50 [1, 8] greater than 10 µM, an AC50 [1, 9] greater than 10 µM and an IC50 [1, 10] greater than 10 µM. For the same compound, the IC50 [2, 11] was greater than 10 µM, the AC50 [2, 9] was greater than 10 µM and the IC50 [2, 12] was greater than 10 µM. The IC50 [3] was greater than 10 µM, the IC50 [4] was greater than 10 µM and the IC50 [5] was greater than 10 µM. For the same compound, the IC50 [6] was greater than 10 µM and the IC50 [7] was greater than 10 µM.
For `c1nc2c(-c3cn[nH]c3)ccc(-c3ccc(N4CCCC5(CCNC5)C4)nn3)c2s1` (centres unmarked) [Compound 193], the IC50 [1, 8] was greater than 10 µM, the AC50 [1, 9] was greater than 10 µM and the IC50 [1, 10] was greater than 10 µM. For the same compound, the IC50 [2, 11] was greater than 10 µM, the AC50 [2, 9] was greater than 10 µM and the IC50 [2, 12] was greater than 10 µM. The IC50 [3] was greater than 10 µM, the IC50 [4] was greater than 10 µM and the IC50 [5] was 1 to 10 µM. It also gave an IC50 [6] greater than 10 µM and an IC50 [7] greater than 10 µM.
With `c1nc2c(-c3cn[nH]c3)ccc(-c3ccc(NC4CNC4)nn3)c2s1` [Compound 196] the IC50 [1, 8] was greater than 10 µM, the AC50 [1, 9] was greater than 10 µM and the IC50 [1, 10] was greater than 10 µM. For the same compound, the IC50 [2, 11] was greater than 10 µM, the AC50 [2, 9] was greater than 10 µM and the IC50 [2, 12] was greater than 10 µM. It also gave an IC50 [3] greater than 10 µM, an IC50 [4] greater than 10 µM and an IC50 [5] greater than 10 µM. It also gave an IC50 [6] greater than 10 µM and an IC50 [7] greater than 10 µM.
`c1nc2c(-c3cn[nH]c3)ccc(-c3ccc(N4CC5(CCNCC5)C4)nn3)c2s1` [Compound 197] gave an IC50 [1, 8] of 1 to 10 µM, an AC50 [1, 9] of 1 to 10 µM and an IC50 [1, 10] of 1 to 10 µM. The IC50 [2, 11] was greater than 10 µM, the AC50 [2, 9] was greater than 10 µM and the IC50 [2, 12] was greater than 10 µM. For the same compound, the IC50 [3] was 1 to 10 µM, the IC50 [4] was greater than 10 µM and the IC50 [5] was 1 to 10 µM. For the same compound, the IC50 [6] was 1 to 10 µM and the IC50 [7] was 1 to 10 µM.
Compound `CN1C[C@@H]2CN(c3ccc(-c4ccc(-c5cn[nH]c5)c5ncsc45)nn3)C[C@@H]2C1` [Compound 198] has an IC50 [1, 8] greater than 10 µM, an AC50 [1, 9] greater than 10 µM and an IC50 [1, 10] greater than 10 µM. It also gave an IC50 [2, 11] greater than 10 µM, an AC50 [2, 9] greater than 10 µM and an IC50 [2, 12] greater than 10 µM. It also gave an IC50 [3] of 0.1 to 1 µM, an IC50 [4] greater than 10 µM and an IC50 [5] of 1 to 10 µM. For the same compound, the IC50 [6] was greater than 10 µM and the IC50 [7] was greater than 10 µM.
`c1nc2c(-c3cn[nH]c3)ccc(-c3ccc(S[C@@H]4C[C@H]5CC[C@@H](C4)N5)nn3)c2s1` [Compound 200] showed an IC50 [1, 8] greater than 10 µM, an AC50 [1, 9] greater than 10 µM and an IC50 [1, 10] greater than 10 µM. For the same compound, the IC50 [2, 11] was greater than 10 µM, the AC50 [2, 9] was greater than 10 µM and the IC50 [2, 12] was greater than 10 µM. For the same compound, the IC50 [3] was greater than 10 µM, the IC50 [4] was greater than 10 µM and the IC50 [5] was 1 to 10 µM. For the same compound, the IC50 [6] was 1 to 10 µM and the IC50 [7] was 1 to 10 µM.
Work on `Cc1ncc(-c2ccc(-c3ccc(N(C)C4CC(C)(C)NC(C)(C)C4)nc3)c3ncsc23)o1` [Compound 201] yielded an IC50 [1, 8] of 1 to 10 µM, an AC50 [1, 9] of 1 to 10 µM and an IC50 [1, 10] of 1 to 10 µM. For the same compound, the IC50 [2, 11] was 1 to 10 µM, the AC50 [2, 9] was 1 to 10 µM and the IC50 [2, 12] was 1 to 10 µM. For the same compound, the IC50 [3] was 0.1 to 1 µM, the IC50 [4] was 1 to 10 µM and the IC50 [5] was 1 to 10 µM. It also gave an IC50 [6] of 1 to 10 µM and an IC50 [7] greater than 10 µM.
In the case of `CN(c1ccc(-c2ccc(-c3cn[nH]c3)c3ncsc23)nn1)[C@H]1[C@@H]2CNC[C@@H]21` [Compound 205], the IC50 [1, 8] is reported as greater than 10 µM, the AC50 [1, 9] is reported as greater than 10 µM and the IC50 [1, 10] is reported as greater than 10 µM. The IC50 [2, 11] was greater than 10 µM, the AC50 [2, 9] was greater than 10 µM and the IC50 [2, 12] was greater than 10 µM. The IC50 [3] was 1 to 10 µM, the IC50 [4] was greater than 10 µM and the IC50 [5] was 1 to 10 µM. It also gave an IC50 [6] greater than 10 µM and an IC50 [7] of 1 to 10 µM.
